# B1: IFN-γ: cytokine added to pDC culture at 10 ng/ml (protein, UniProt P01579 24-161, looked up)
# Interferon gamma: QDPYVKEAENLKKYFNAGHSDVADNGTLFLGILKNWKEESDRKIMQSQIVSFYFKLFKNFKDDQSIQKSVETIKEDMNVKFFNSNKKKRDDFEKLTNYSVTDLNVQRKAIHELIQVMAELSPAAKTGKRKRSQMLFRG
# B2: IL-12: cytokine added to pDC culture at 100 ng/ml (protein, UniProt P29459 23-219; P29460 23-328, looked up)
# Interleukin-12 subunit alpha: RNLPVATPDPGMFPCLHHSQNLLRAVSNMLQKARQTLEFYPCTSEEIDHEDITKDKTSTVEACLPLELTKNESCLNSRETSFITNGSCLASRKTSFMMALCLSSIYEDLKMYQVEFKTMNAKLLMDPKRQIFLDQNMLAVIDELMQALNFNSETVPQKSSLEEPDFYKTKIKLCILLHAFRIRAVTIDRVMSYLNAS
# Interleukin-12 subunit beta: IWELKKDVYVVELDWYPDAPGEMVVLTCDTPEEDGITWTLDQSSEVLGSGKTLTIQVKEFGDAGQYTCHKGGEVLSHSLLLLHKKEDGIWSTDILKDQKEPKNKTFLRCEAKNYSGRFTCWWLTTISTDLTFSVKSSRGSSDPQGVTCGAATLSAERVRGDNKEYEYSVECQEDSACPAAEESLPIEVMVDAVHKLKYENYTSSFFIRDIIKPDPPKNLQLKPLKNSRQVEVSWEYPDTWSTPHSYFSLTFCVQVQGKSKREKKDRVFTDKTSATVICRKNASISVRAQDRYYSSSWSEWASVPCS
# B3: IL-10: cytokine added to pDC culture at 10 ng/ml (protein, UniProt P22301 19-178, looked up)
# Interleukin-10: SPGQGTQSENSCTHFPGNLPNMLRDLRDAFSRVKTFFQMKDQLDNLLLKESLLEDFKGYLGCQALSEMIQFYLEEVMPQAENQDPDIKAHVNSLGENLKTLRLRLRRCHRFLPCENKSKAVEQVKNAFNKLQEKGIYKAMSEFDIFINYIEAYMTMKIRN
# B4: CXCL9: belongs to the CXC chemokine family, also known as MIG (protein, UniProt Q07325 23-125, looked up)
# C-X-C motif chemokine 9: TPVVRKGRCSCISTNQGTIHLQSLKDLKQFAPSPSCEKIEIIATLKNGVQTCLNPDSADVKELIKKWEKQVSQKKKQKNGKKHQKKKVLKVRKSQRSRQKKTT
# How the values were obtained:
# [1] = tested on: purified pDCs from HDs or SSc patients; assay: IFN production by purified pDCs cultured with chemokine alone; format: cell-based, human; conditions: chemokine 10 μg/ml without CpG, results not shown
# Protocol: (§1) PBMCs were prepared using Ficoll-Paque density gradient from fresh blood under internal Institutional Review Board-approved protocols. pDCs were isolated as previously described (Guiducci et al. 2008) using either using negative depletion (Miltenyi Biotech) or following cell sorting using a BD IFNLUX cell sorter. As part of the gating strategy, neutrophils were excluded by FSC/SSC and cells positive for CD14 (CD3 and CD19 as well) were first excluded in order to prevent the contamination by TLR8 positive cells and then positively gated on HLA-DR, CD123 and BDCA4 to purify the pDCs. All BDCA4+ cells also express BDCA2 (results not shown). As a result, pure pDCs were obtained and no markers for neutrophils (CD66) or myeloid cells were found by PCR. B cells were FACS sorted as CD19+ and monocytes as CD14+ cells. PBMCs were depleted of pDCs using BDCA4 beads from Miltenyi. pDCs were cultured at 10,000-30,000 cells per well in a 96-round bottom plate and incubated at 37° C., 5% CO2 and 95% humidity. After 24 hours of culture, the supernatant was collected for ELISA or Mutiplex cytokine assays. In some culture conditions, cells were cultured with the PI3Kδ inhibitor, CAL-101 (Selleck chemicals) for 24 hours. The RNA-based TLR8 agonist, ORN8-L previously described (Guidacci et al. 2013) was synthetized by Chemgenes Corporation. For the TLR8 activation assay, pDCs were incubated in complete media alone, 200 μg/ml ORN8-L in complete media or 200 μg/ml ORN8-L+ 10 μg/ml CXCL4 (R&D systems).
# Supernatant from pDCs 24 hour culture was used for quantification of secreted chemokines and cytokines and measured with the use of an enzyme-linked immunosorbent assay (ELISA) or Luminex multiplex-beads immunoassay. CXCL4 ELISA (Ray Biotech) and IFNα, IP-10, IL-6, TNF Luminex assay (Millipore) was performed according to the manufacturer's protocol. Due to the variability in the number of cells obtained from the different patients and so we could compare the values across donors, all results were normalized to 10,000 cells. Of note, for all donors, pDCs were plated between 10,000-30,000 cells.
# When purified pDCs from HDs or SSc patients were cultured with CXCL4 alone ([…]), there was no effect on IFN production.
# (§2) 5×10^5 PBMCs or pDC-depleted PBMCs were cultured in 96 wells plate and stimulated with 0.25 μM CpG DNA with or without 10 μg/ml CXCL4, CXCL10, CXCL12 or CCL5. Freshly isolated pDCs were resuspended at 5×10^4 cells/100 μl RPMI 1640 medium (Gibco) and stimulated with the 0.25 μM CpG with/without 10 μg/ml indicated chemokines. The supernatant was harvested after 18 h and IFN-α was measured by ELISA.
# [2] = tested on: TLR9-mediated activation of pDCs; assay: TLR9-mediated activation of purified pDCs (CpG with or without chemokines), IFN-α ELISA; format: cell-based, human; conditions: for TLR9-induced response (IFN-α secretion) by pDCs / IFNα production from TLR9 in pDCs from HDs: CpG 0.25 μM; for TLR9-induced response (IFN-α secretion) by pDCs: chemokine 10 μg/ml (Example 17); for dependence of IFN-α superinduction on chemokine receptors: with AMG487 100 nM, AMD3100 10 μg/ml, anti-CXCR7 11G8 10 μg/ml, J113863 1.5 μM or Vicriviroc 0.1 μM; for IFNα production from TLR9 in pDCs from HDs: chemokine 10 μg/ml (Example 9)
# [3] = tested on: PBMCs and pDC-depleted PBMCs; assay: IFN-α production in PBMCs and pDC-depleted PBMCs cultured with CpG and chemokines (ELISA); format: cell-based, human; conditions: CpG 0.25 μM + chemokine 10 μg/ml
# Protocol: PBMCs were prepared using Ficoll-Paque density gradient (GE Healthcare) as previously described (Guiducci et al., 2008).
# pDCs were isolated from PBMCs by positive selection using BDCA4-MicroBead Kit as previously described (Guiducci et al., 2008). pDC-depleted PBMC were prepared by removing BDCA4-positive cells from PBMC using microbeads.
# as §2
# As shown above, CXCL4 can increase IFN-α production by TLR9-activated pDCs. Thus it was tested whether other chemokines may impact TLR9 signaling in pDCs. Purified pDCs were left unstimulated (Unstim.) or cultured with CpG (0.25 μM) alone or with the indicated chemokines at 10 μg/ml. IFN-α secretion was quantified by ELISA. Strikingly, it was observed that a set of chemokines, including CXCL4, CXL10, CXCL12 and CCL5, were able to superinduce TLR9-induced response by pDCs (FIG. 18A), while they had no effect when used alone (results not shown). […] This also raised questions as to the specificity and mechanism for this effect. First, as other DNA sensors have been described to induce IFN-α in immune cells (Barrat et al., 2016), it was tested to see if these chemokines altered the specificity of the CpGs for TLR9 and if the IFN-α response was restricted to pDCs. Total PBMCs or PBMCs where pDCs were depleted (PBMC-ΔpDCs) were incubated with CpGs and either CXCL4, CXCL10, CXCL12 or CCL5 and IFN-α production was quantified by ELISA.
# pDCs of HDs = assay: TLR gene expression in purified pDCs from HDs cultured with cytokines or chemokines (qPCR); format: cell-based, human; conditions: 24 hours; for induction of TLR8 expression on pDCs of HDs: purified pDCs from HDs, IFN-α and IFN-γ 10 ng/ml, IL-12 100 ng/ml, IL-6 5 ng/ml, IL-10 10 ng/ml, TNF 1 ng/ml, TGF-β 10 ng/ml
# Protocol: as §1
# PCR reactions were performed as described previously with 10 ng of cDNA (Barrat et al. 2005). In brief, RNA was extracted from cells using the Qiagen RNeasy Mini Kit. Quantity of RNA was measured by Nanodrop and high-capacity cDNA Reverse Transcription kit was used to generate 20-50 ng cDNA. Gene expression levels were calculated based on relative threshold cycle (Ct) values. This was done using the formula Relative Ct=100×1.8 (HSK-GENE), where HSK is the mean CT of duplicate housekeeping gene runs (we used Ubiquitin), GENE is the mean CT of duplicate runs of the gene of interest, and 100 is arbitrarily chosen as a factor to bring all values above 0.
# In particular, CXCL4 or IP-10 (two CXCR3B agonists) (10 μg/ml each) had no impact on TLR8 nor TLR7 and TLR9 expression levels in pDCs (FIG. 2C).
# [4] = tested on: TLR9-mediated activation of human B cells; assay: TLR9-mediated activation of human B cells (CpG with or without chemokines); format: cell-based; conditions: chemokine 10 μg/ml; for activation of B cells via TLR9 as shown by the production of IL-6: CpG 0.15 μM, ELISA
# Protocol: as §1
# IL-6, TNF, and IL-10 gene levels were measured at 6 hours post culture using PCR. The secretion of cytokines/chemokines in the supernatants was quantified using Luminex. CD83, CD80, CD86 and CD69 expression was measured by flow cytometry at 24 hour post culture.
# Human B cells were purified and cultured for 6 hours or 24 hours either with medium only, with CpG-C (at 0.15 μM) alone or with a combination of CpG-C and CXCL4 (at 10 μg/ml). IL-6 gene levels was measured at 6 hour post culture by PCR and CD83, CD80, CD86 and CD69 expression was measured by flow cytometry at 24 hour post culture.
# Purified B cells from HDs were cultured in media alone (control), with either a CpG TLR9 agonist (0.15 μM) or with CpG and either CXCL4, CXCL10, CXCL9, CXCL4, CXCL7 or CXCL12 (all at 10 μg/ml). IL-6 was quantified in the supernatants by ELISA.
# Purified B cells from HDs were cultured in media alone (control), with either a CpG TLR9 agonist (0.25 μM) or with CpG and CXCL4 or CXCL10 (10 μg/ml) alone or in the presence of the CXCR3 inhibitor AMG487 at 0, 0.1, 1 or 10 μM for 6 hours or 24 hours. IL-6 was quantified by ELISA at 24 hours and IL-6 and TNF gene expression levels were quantified by q-PCR at 6 hours and CD83, CD80, CD86 and CD69 expression was measured by flow cytometry at 24 hours post culture.
molecule,measurement,setting,value
CCL5: small chemokine belonging to the CC chemokine family,"IFN-α secretion by pDCs, chemokine used alone",[1],no effect
same,TLR9-induced response (IFN-α secretion) by pDCs,[2],superinduce
same,dependence of IFN-α superinduction on chemokine receptors,[2],independent of their chemokine receptors
same,IFN-α production in absence of the pDCs (PBMC-ΔpDCs versus total PBMCs),[3],dramatic decrease
CXCL10: small chemokine belonging to the CXC chemokine family and a ligand for the receptor CXCR3,"TLR8, TLR7 and TLR9 expression levels in pDCs","pDCs of HDs; 10 μg/ml each, pDCs from HDs",no impact
same,effect of inhibition of CXCR3 on the chemokine's inhibition of TLR9 in B cells,"[4]; CXCR3 inhibitor AMG487 0.1, 1 or 10 μM, CpG 0.25 μM, 6 or 24 hours",no effect
same,activation of B cells via TLR9 as shown by the production of IL-6,[4],inhibited
same,"IFN-α secretion by pDCs, chemokine used alone",[1],no effect
same,IFNα production from TLR9 in pDCs from HDs,[2],potentiated
same,TLR9-induced response (IFN-α secretion) by pDCs,[2],superinduce
same,dependence of IFN-α superinduction on chemokine receptors,[2],independent of their chemokine receptors
same,IFN-α production in absence of the pDCs (PBMC-ΔpDCs versus total PBMCs),[3],dramatic decrease
"CXCL12: stromal cell-derived factor-1, small chemokine belonging to the CXC chemokine family",activation of B cells via TLR9 as shown by the production of IL-6,[4],inhibited
same,"IFN-α secretion by pDCs, chemokine used alone",[1],no effect
same,IFNα production from TLR9 in pDCs from HDs,[2],potentiated
same,TLR9-induced response (IFN-α secretion) by pDCs,[2],superinduce
same,dependence of IFN-α superinduction on chemokine receptors,[2],independent of their chemokine receptors
same,IFN-α production in absence of the pDCs (PBMC-ΔpDCs versus total PBMCs),[3],dramatic decrease
IFN-α,induction of TLR8 expression on pDCs of HDs,pDCs of HDs,none of these molecules could induce TLR8
IL-6: cytokine added to pDC culture at 5 ng/ml,induction of TLR8 expression on pDCs of HDs,pDCs of HDs,none of these molecules could induce TLR8
TGF-β,induction of TLR8 expression on pDCs of HDs,pDCs of HDs,none of these molecules could induce TLR8
heparin [reference compound],"superinduction of IFN-α by all four chemokines (CXCL4, CXCL10, CXCL12, CCL5)","[2]; heparin 1 U/ml, CpG-activated pDCs",reduced
B1,induction of TLR8 expression on pDCs of HDs,pDCs of HDs,none of these molecules could induce TLR8
B2,induction of TLR8 expression on pDCs of HDs,pDCs of HDs,none of these molecules could induce TLR8
B3,induction of TLR8 expression on pDCs of HDs,pDCs of HDs,none of these molecules could induce TLR8
B4,activation of B cells via TLR9 as shown by the production of IL-6,[4],inhibited

# Reference: patent US12427183B2, “Methods of treating cancer, infectious disease, and autoimmune disease using chemokines” (New York Society for the Relief of the Ruptured and …, priority 2016, dated 2025)
